The Kd is the concentration at which binding is half-saturated.

The values that follow come from patent publication US20220119868A1, “PROFILING RNA-SMALL MOLECULE BINDING SITES WITH OLIGONUCLEOTIDES” (priority 2018, published 2022).

In one test the test system is panel of 22 kinases. Nature of the test: In vitro inhibition of a panel of kinases. The following applies: 20 μM; for kinases inhibited in the panel: panel of 22 kinases. The format is biochemical.
Test [1] addresses RNA motif 5′UUA3′/3′A_U5′ (from RNA library C). As to the kind of experiment: In solution, fluorescence-based binding affinity assay. The protocol: (§1) Affinity of Selected RNA Motif-Small Molecule Interactions. The affinity of exemplar compounds that have inherent fluorescence was measured. […] . Binding affinities were confirmed using a label-free method, biolayer interferometry.
(§2) where n1 is the size of Population 1 (number of sequencing reads for a given RNA from RNA-seq analysis of the selected library), n2 is the size of Population 2 (number of sequencing reads for the same RNA from RNA-seq analysis of the starting library), p1 is the observed proportion of Population 1 (the number of reads for a given RNA from selected library/total number of reads), and p2 is the observed proportion for Population 2 (the number of reads for the same RNA in the starting library/total number of reads). Generation of Logos and DiffLogos: Zobs corresponding to the highest (enriched) 0.5% and lowest (discriminated against) 0.5% scores were analyzed to generate consensus sequences, or Logos. The resulting list of sequences were converted to position weight matrix (PWM) lists for each compound. “Enriched” and “discriminated” sequences were kept separate using JMP®, Version <13.2.1>. SAS Institute Inc., Cary, N.C., 1989-2007. The R package Difflogo,^16 which is part of Bioconductor, was utilized to create the sequence logos from PWM lists for each compound and visually compare the differences between them. Binding Affinity Measurements. Dissociation constants were determined using an in solution, fluorescence-based assay. […] Serial dilutions (1:2) of the small molecule were then completed in 1× Assay Buffer supplemented with 1 mM MgCl2. The solutions were incubated for 30 min at room temperature, transferred to a 96-well plate, and fluorescence intensity measured on a BioTek-FLx800 plate reader. The change in fluorescence intensity as a function of small molecule concentration was fit to a one site binding model per equation 3: […]
(§3) Effect of compounds on HCV replication. […] Cytotoxicity assays. […] Oligonucleotide profiling of target engagement in vitro. […] Primers can be found in Table 4. […] Inhibition of kinases. […] . Figure S7C).

The next test concerns the target Fully paired RNA. The test is described as above. The protocol:
as §1, §2, §3

For test [2], the system named is RNA library C (3×2 nucleotide asymmetric internal loops). As to the kind of experiment: 2DCS selection with RNA-seq and HiT-StARTS analysis (Zobs, Fitness Score). The format is binding. On the set-up: key to Fitness Score: Zobs normalized so most significant interaction = 100. From the text:
Identification of RNA-binding Small Molecules by 2DCS. […] We have previously validated the secondary structures formed by members of RNA libraries by enzymatic mapping^8, 12, 34. These discrete RNA motifs were selected because they are present in cellular RNAs. Due to the library-versus-library nature of these studies, they represent the largest screens completed to date, probing >52,000,000 interactions. Of the 1,987 compounds probed, 239 bound RNA (12.0%).
A final screen was then completed in which the 91 array-immobilized compounds were incubated with all five RNA motif libraries separately in the presence of oligonucleotide competitors F-J, d(AT)11 and d(GC)11. Oligonucleotides F-J mimic regions common to all library members, restricting binding to the randomized regions. (Note: oligonucleotide J was not used for hairpin selections.) After rigorous washing to remove unbound RNAs, bound RNAs were harvested and identified by RNA-seq. By completing selections under conditions of high oligonucleotides stringency (by use of excess competitor oligonucleotides), these studies identified small molecules that bound RNA motifs avidly. A challenge in the small molecule RNA-targeting area has been the development and identification of selective interactions between small molecules and RNAs. In myriad studies, 2DCS has defined selective RNA motif-small molecule interactions with varied affinities^11, 12, 35, 36.
Identification of Privileged RNA Space by RNA-Seq. Using RNA-seq, a large sequencing dataset was obtained for each pool of RNAs that were specifically bound to each small molecule. RNA libraries A, B, C, D, and E had at least 12.1-fold (average: 133.1±111.8), 6.7-fold (average: 80.8±78.7), 9.9-fold (average: 103.5±110.6), 7.2-fold (average: 75.7±65.6), and 6.0-fold (average: 36.3±31.6) coverage for each small molecule selection, respectively, as compared to the number of unique sequences within the corresponding RNA library. It was previously shown that at least 6-fold coverage is required to generate binding landscape maps^12. RNA-seq data were then analyzed by High Throughput Structure-Activity Relationships Through Sequencing (HiT-StARTS)^12 to identify the privileged RNA motifs that bind each small molecule. Briefly, the frequency of occurrence of a selected RNA was compared to the frequency of occurrence of the same RNA from RNA-seq analysis of the starting RNA library to account for biases arising during transcription and RT-PCR. This pooled population comparison affords the parameter Zobs, a metric of statistical confidence. A large, positive Zobs indicates a strong preference for binding the motif while a negative Zobs indicates a strong preference against binding the motif. A Fitness Score is assigned by normalizing the Zobs values to the most statistically significant small molecule-RNA interaction to 100. […] Structure-Activity Relationships (SAR). Next, the most privileged RNA motif binders and the most discriminated against RNA motifs (non-binders) for each compound selection was analyzed by generating LOGOS from the highest and lowest 0.5% of Zobs scores^37. By comparing the LOGOS for related compounds, or DiffLogos, SAR can be defined. Indeed, various hit compounds differ by a single functional group, including compounds A and B (FIG. 5). […] In contrast, the RNA motifs most hindered from binding compounds 1 and 2 (discriminated against) are quite different (FIG. 5B).
Oligonucleotides. All DNA oligonucleotides were purchased from Integrated DNA Technologies, Inc. (IDT) and used without further purification. RNA oligonucleotide competitors were purchased from Dharmacon and de-protected according to the manufacturer's standard procedure. All oligonucleotide solutions were prepared with NANOpure water. The RNA motif libraries were synthesized by in vitro transcription from the corresponding DNA template that was custom-mixed at the randomized positions to ensure equivalent representation of all four nucleotides. Compounds. […]

The structures appear in SMILES notation. Several values for one entry are separate records, joined by “and”; a condition that tells them apart may be missing. Identical values can stand only once.

Consider `O=C(Nc1cccc(NC(=O)Nc2cc(C(=O)Nc3ccc(C4=NCCN4)cc3)ccc2C(=O)Nc2ccc(C3=NCCN3)cc2)c1)Nc1cc(C(=O)Nc2ccc(C3=NCCN3)cc2)ccc1C(=O)Nc1ccc(C2=NCCN2)cc1` [Compound 7], for which, in the test on panel of 22 kinases, the “kinases inhibited in the panel” value was “affected seven kinases modestly”. Moreover, in the test on panel of 22 kinases, the “average percent inhibition of the seven affected kinases” value was determined as 16±3%. In addition, the Kd was 380 ± 26 nM in test [1] and greater than 7000 nM on Fully paired RNA. Further, the “Fitness Score” value in test [2] (RNA motif 5′AAC3′/3′U_G5′) worked out at 33; in test [2] (RNA motif 5′GAG3′/3′C_C5′) it was 73; in test [2] (RNA motif 5′UGU3′/3′G_A5′) it was 47; in test [2] (RNA motif 5′UUA3′/3′A_U5′, Zobs normalized to most significant interaction = 100), 100. Besides, the Zobs in test [2] (RNA motif 5′AAC3′/3′U_G5′) is reported as 8.2; in test [2] (RNA motif 5′GAG3′/3′C_C5′), 18.3; in test [2] (RNA motif 5′UCCAU3′/3′AUCA (non-binder)) it was −2.8; in test [2] (RNA motif 5′UCCUU3′/3′AUUA5′ (non-binder)), 1.1; in test [2] (RNA motif 5′UGU3′/3′G_A5′), 11.8; in test [2] (RNA motif 5′UUA3′/3′A_U5′) it was 25.2.

On to `O=C(Nc1ccc(C2=NCCN2)cc1)c1cc(C(=O)Nc2ccc(C3=NCCN3)cc2)cc(C(=O)Nc2ccc(C3=NCCN3)cc2)c1` [Compound 8], for which, in the test with panel of 22 kinases, the “kinases inhibited in the panel” value was “affected seven kinases modestly”. For the same molecule, the “average percent inhibition of the seven affected kinases” value in the test with panel of 22 kinases is listed as 14±3%. Moreover, the equilibrium dissociation constant (Kd) in test [1] is 690 nM and 530 nM; on Fully paired RNA, greater than 5000 nM. In addition, the “Fitness Score” value in test [2] (RNA motif 5′GAU3′/3′C_A5′) was 87; in test [2] (RNA motif 5′GCU3′/3′C_A5′), 79; in test [2] (RNA motif 5′UCUAU3′/3′ACCA5′) it was 45. Also, the Zobs was 11.8 in test [2] (RNA motif 5′GAU3′/3′C_A5′); 10.8 in test [2] (RNA motif 5′GCU3′/3′C_A5′); 6.1 in test [2] (RNA motif 5′UCUAU3′/3′ACCA5′); 13.6 and 9.5 in test [2] (RNA motif 5′UUA3′/3′A_U5′).
